Article PMC4148842 (The Journal of Biological Chemistry, 2014)
Entries after “also recorded” stand apart in the source; their conditions may differ. One block for each substance: values may come before it.

Key:
MMP-13(E204A) = biological target: T1, MMP-13(E204A) (Homo sapiens, UniProt P45452, E223A); test: MMP-13 Toolkit SPBA, active-site mutant MMP-13(E204A); type: binding; conditions: 83 nM, coating 10 μg/ml, 1 h, 24 °C
T1 construct: made in house; host or cells: Escherichia coli BL21(DE3)
Description: (§1) Recombinant proMMP-13 was expressed and purified as previously described ([18]). […] ProMMP-13(E204A) was expressed in Escherichia coli BL21(DE3), refolded, purified, and activated essentially as described for proMMP-1(E200A) ([19], [20]).
(§2) Unless stated otherwise, all peptides were triple-helical, a structure maintained by the flanking sequences, GPC(GPP)5- and -(GPP)5-GPC-amide, at their N and C terminus, respectively. For simplicity, peptides are referred to by their specific guest sequence. A negative control peptide, (GPC-(GPP)10-GPC-amide) is referred to as GPP10.
(§3) Immulon 2 HB 96-well plates (Nunc, Langenselbold, Germany) were coated with Collagen Toolkit or other peptides, fibrillar or monomeric collagen at a saturating concentration (10 μg/ml in 0.01 M acetic acid) overnight at 4 °C. Fibrous bovine type I collagen was a gift from Ethicon Corporation (Somerville, NJ). Monomeric collagen was obtained from Devro (Bathurst, Australia). All further incubations were performed at 24 °C for 1 h unless otherwise stated. The wells were washed three times with adhesion buffer (1 mg/ml BSA in Tris-buffered saline (TBS) containing 0.1% (v/v) Tween-20) between each incubation step. […] Binding curves were fitted using Prism 5.0 software (GraphPad, San Diego), allowing total binding (Bmax) and equilibrium dissociation constant (KD) to be determined. […]

MMP-13 [1] = biological target: T2, MMP-13 (Homo sapiens, UniProt P45452); test: MMP-13 Toolkit SPBA, pro and active forms, wild type and E204A taken together; type: binding; conditions: for binding of MMP-13 preparations: all or several MMP-13 preparations, SPBA
Description: as §1, §2
Immulon 2 HB 96-well plates (Nunc, Langenselbold, Germany) were coated with Collagen Toolkit or other peptides, fibrillar or monomeric collagen at a saturating concentration (10 μg/ml in 0.01 M acetic acid) overnight at 4 °C. Fibrous bovine type I collagen was a gift from Ethicon Corporation (Somerville, NJ). Monomeric collagen was obtained from Devro (Bathurst, Australia). All further incubations were performed at 24 °C for 1 h unless otherwise stated. The wells were washed three times with adhesion buffer (1 mg/ml BSA in Tris-buffered saline (TBS) containing 0.1% (v/v) Tween-20) between each incubation step. The wells were blocked with 50 mg/ml BSA in TBS prior to the addition of MMP at a concentration of 83 nM (unless otherwise stated) in adhesion buffer. […] Rabbit HRP-linked anti-GST (GE Healthcare; dilution 1:10,000) was used to detect GST-Hpx. […] Binding curves were fitted using Prism 5.0 software (GraphPad, San Diego), allowing total binding (Bmax) and equilibrium dissociation constant (KD) to be determined.

MMP-13 GST-Hpx domain = test: MMP-13 Toolkit SPBA, isolated GST-Hpx domain; type: binding; conditions: Hpx 83 nM, anti-GST detection, 1 h, 24 °C
Description: as §1, §2, §3

[2] = tested on: Cat domain of MMP-13 (Δ249–451); test: MMP-13 Toolkit SPBA, isolated Cat domain; type: binding; conditions: data not shown for Toolkit II
Description: as §1
Immulon 2 HB 96-well plates (Nunc, Langenselbold, Germany) were coated with Collagen Toolkit or other peptides, fibrillar or monomeric collagen at a saturating concentration (10 μg/ml in 0.01 M acetic acid) overnight at 4 °C. Fibrous bovine type I collagen was a gift from Ethicon Corporation (Somerville, NJ). Monomeric collagen was obtained from Devro (Bathurst, Australia). All further incubations were performed at 24 °C for 1 h unless otherwise stated. The wells were washed three times with adhesion buffer (1 mg/ml BSA in Tris-buffered saline (TBS) containing 0.1% (v/v) Tween-20) between each incubation step. […] Binding curves were fitted using Prism 5.0 software (GraphPad, San Diego), allowing total binding (Bmax) and equilibrium dissociation constant (KD) to be determined.
Proteins were C-terminally biotinylated using an EZ-Link® Micro Sulfo-NHS-Biotinylation Kit (Pierce) according to the manufacturer's instructions. Successful biotinylation was detected via Western blotting using an ultrasensitive Streptavidin-Peroxidase Polymer (Sigma).

proMMP-9 = conditions: ref [32]; cited from earlier work
Description: (§4) How can MMP-13 avoid this constraint? […] The effect is to move the collagen-binding S10′ pocket of M ...

proMMP-1 = conditions: ref [7], [31]; cited from earlier work
Description: as §4

proMMP-3 = conditions: ref [32]; cited from earlier work
Description: as §4

MMP-13 [3] = conditions: cited from earlier work
Description: Collagenolytic MMPs are members of the zinc-dependent peptidase family whose tightly regulated proteolytic activities play a pivotal role in extracellular matrix homeostasis, cell migration and wound healing. […] The Cat and Hpx are thought to cooperate to recognize and bind to the cleavage site, in collagen D-period 4 (D4), three-quarters of the way along the tropocollagen molecule ([6], [7]). Binding of the Hpx is considered to facilitate local relaxation of the helix, allowing the Cat d ... || Comparison of the collagenase cleavage sites of the various fibrillar collagens with the sequences of the MMP-13-binding peptides provides a basis for their relative recognition and subsequent cleavage.

MMP-13 [4] = biological target: T2, MMP-13; test: MMP-13 Toolkit solid-phase binding assay (SPBA), wild type active MMP-13; design: made in house; host or cells: mouse myeloma cells; conditions: 1 h, 24 °C; for binding: wild type active MMP-13, 83 nM, coating 10 μg/ml
Description: as §1, §2
Immulon 2 HB 96-well plates (Nunc, Langenselbold, Germany) were coated with Collagen Toolkit or other peptides, fibrillar or monomeric collagen at a saturating concentration (10 μg/ml in 0.01 M acetic acid) overnight at 4 °C. Fibrous bovine type I collagen was a gift from Ethicon Corporation (Somerville, NJ). […] All further incubations were performed at 24 °C for 1 h unless otherwise stated. The wells were washed three times with adhesion buffer (1 mg/ml BSA in Tris-buffered saline (TBS) containing 0.1% (v/v) Tween-20) between each incubation step. […] Rabbit HRP-linked anti-GST (GE Healthcare; dilution 1:10,000) was used to detect GST-Hpx. […] Binding curves were fitted using Prism 5.0 software (GraphPad, San Diego), allowing total binding (Bmax) and equilibrium dissociation constant (KD) to be determined.
FIGURE 1. […] For reference, collagen D-periods corresponding to these peptides are shown as gray bars below, and the collagenase cleavage site indicated by an arrow.

A450 (adhesion) (MMP-13(E204A); mean of four experiments): ~0.8
Substance: GPQG∼LAGQRGIVGLOGQRGER [44J, 21-residue peptide, P4 to P17′, parent of the Ala-scan]
binding of MMP-13 preparations (MMP-13 [1]): MMP-13(E204A) binding most strongly (A450 ∼0.8), then proMMP-13, then proMMP-13(E204A), then active MMP-13, and lastly the Hpx domain alone
A450 (adhesion) (MMP-13 GST-Hpx domain; coating 10 μg/ml, mean of four experiments): ~0.4

binding of MMP-13 preparations (MMP-13 [1]): supported no binding
Substance: GFOGLOGPS [44B, peptide containing only the missing triplets, GFOGLOGPS]

More lines, now with the values behind:

Substance: collagen
binding [2]: able to recognize collagen; also recorded: bound weakly
binding of MMP-13 preparations (MMP-13 [1]): support firm adhesion of MMP-13 in both its active and pro- forms
binding of proMMP-9 (proMMP-9): can bind collagen
binding of proMMP-1 (proMMP-1): did not bind
binding of proMMP-3 (proMMP-3): can bind collagen

Substance: collagen II: preferred substrate for MMP-13
relative cleavage rate by MMP-13 (MMP-13 [3]; collagen II compared with collagens I and III, ref [3]): five times faster than collagen I; also recorded: six times faster than collagen III
cleavage site of MMP-13 (MMP-13 [3]; position within collagen II helical domain, ref [11], [12]): Gly^775–Leu^776; also recorded: Gly^778–Gln^779

Substance: GCPP(GPPP)2GGPPPG-II-44 guest sequence -P(GPPP)2GGPPPGCPG-amide [linear peptide equivalent to II-44]
binding of MMP-13 preparations (MMP-13 [1]): negligible binding
binding (MMP-13 [4]): unable to bind

Substance: monomeric type I collagen: Monomeric collagen obtained from Devro (Bathurst, Australia)
binding (MMP-13(E204A)): much lower binding
binding (MMP-13 [4]): much lower binding

Substance: fibrillar type I collagen: Fibrous bovine type I collagen, a gift from Ethicon Corporation
binding [2]: bound fibrillar collagen I, albeit weakly
Kd (MMP-13 [1]; fibrillar collagen, MMP-13 preparations overall): ~0.04 µM
A450 (adhesion) (MMP-13 [4]; wild type MMP-13 (active or pro form not stated for the numbers), 83 nM, plates coated 10 μg/ml, mean of four experiments): ≥ 1.0
binding (MMP-13 GST-Hpx domain): bound fibrillar collagen I
